In ChEMBL document CHEMBL1129854, “Novel small molecule neurotensin antagonists: 3-(1,5-diaryl-1,5-dioxopentan-3-yl)benzoic acids” (Bioorg Med Chem Lett, 1997):

How the values were obtained:
[1] = Inhibition of the binding of [3H]NT to neurotensin (NT) receptor in mouse brain tissue; type: tissue-based
[2] = system: HT-29; test: In vitro ability to inhibit the calcium mobilization induced by neurotensin (NT) in HT-29 cells; type: functional, cell-based; conditions: Homo sapiens

Row | SMILES | Ki [1] | IC50 [2]
1 | O=C(O)c1cccc(C(CC(=O)c2ccccc2)CC(=O)c2ccccc2)c1 | > 10000 nM | 
2 | COc1cccc(OC)c1-c1cc(C(=O)NC2(C(=O)O)C3CC4CC(C3)CC2C4)nn1-c1ccnc2cc(Cl)ccc12 (stereo not drawn) [REMINERTANT] | 3.9 nM | 160 nM
